# From patent US5773423A (priority 1994, dated 1998)
# Where two headings read alike, the source gives them in different places.
# Experiments:
# [1] = target: T1, A1 receptors from rat brain membranes (Rattus norvegicus, UniProt P25099); experiment: biochemical; type: binding; details: for inhibition at 100 µM: read-out: A1 percent displacement
# T1 construct: Rat cerebral cortical and striatal membranes were prepared; from tissue; host or cells: rat brain (cerebral cortical) membranes
# T1 sequence (P25099 1-326): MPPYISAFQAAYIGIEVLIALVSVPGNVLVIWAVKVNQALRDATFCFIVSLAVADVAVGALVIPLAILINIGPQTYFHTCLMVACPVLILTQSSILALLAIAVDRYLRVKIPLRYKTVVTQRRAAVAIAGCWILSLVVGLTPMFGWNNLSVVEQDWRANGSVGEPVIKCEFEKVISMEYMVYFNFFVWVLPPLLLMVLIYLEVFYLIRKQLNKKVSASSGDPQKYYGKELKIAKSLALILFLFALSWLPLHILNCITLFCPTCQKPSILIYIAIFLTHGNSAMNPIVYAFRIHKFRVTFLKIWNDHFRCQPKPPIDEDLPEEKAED
# [2] = target: T2, A2 receptors from rat striatal membranes (Rattus norvegicus, UniProt P30543); experiment: Radioligand binding at A2 (A2a) receptors, displacement of [3H]CGS 21680 (or [3H]NECA with 50 nM CPA) from rat striatal membranes; details: for Ki: rat striatal membranes, displacement of [3H]CGS 21680 (or [3H]NECA + 50 nM CPA), read-out: A2 affinity Ki
# T2 construct: Rat cerebral cortical and striatal membranes were prepared; from tissue; host or cells: rat striatal membranes
# T2 sequence (P30543 whole entry): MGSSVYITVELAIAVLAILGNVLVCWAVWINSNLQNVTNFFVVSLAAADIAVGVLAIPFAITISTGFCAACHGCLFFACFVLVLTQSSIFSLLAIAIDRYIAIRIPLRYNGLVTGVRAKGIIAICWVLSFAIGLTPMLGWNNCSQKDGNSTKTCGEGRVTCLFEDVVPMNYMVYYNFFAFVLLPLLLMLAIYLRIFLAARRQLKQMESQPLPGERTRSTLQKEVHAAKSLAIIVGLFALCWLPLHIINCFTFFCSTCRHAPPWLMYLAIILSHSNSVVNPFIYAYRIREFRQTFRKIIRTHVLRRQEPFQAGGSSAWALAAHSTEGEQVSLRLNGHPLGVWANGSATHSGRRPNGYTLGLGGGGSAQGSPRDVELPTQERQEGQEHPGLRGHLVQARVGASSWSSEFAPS
# [3] = rat brain membranes, displacement of [3H]PIA (or [3H]CHA), read-out: A1 affinity Ki
# [4] = at 100 μM, read-out: A2 percent displacement
# [5] = read-out: A2 percent displacement
# [6] = read-out: percent displacement of radioligand at A2
Compound,"Ki [1, 3]",Ki [2],inhibition at 100 µM ([1]; at 100 μM),"inhibition at 100 µM [2, 5]",other results
"CCNC(=O)[C@H]1O[C@@H](n2cnc3c(NCc4cccc(I)c4)ncnc32)[C@H](O)[C@@H]1O [Compound 60, N^6-(3-iodobenzyl)-NECA]",7.7 ± 0.9 nM,7.2 ± 0.6 nM,–,–,–
"CCNC(=O)[C@H]1O[C@@H](n2cnc3c(NCc4ccccc4[N+](=O)[O-])ncnc32)[C@H](O)[C@@H]1O [Compound 61, N^6-(2-nitrobenzyl)adenosine-5'-N-ethyluronamide]",31 ± 4 nM,24 ± 3 nM,–,–,–
"CCNC(=O)[C@H]1O[C@@H](n2cnc3c(NCc4cccc([N+](=O)[O-])c4)ncnc32)[C@H](O)[C@@H]1O [Compound 62, N^6-(3-nitrobenzyl)-NECA]",78 ± 10 nM,35 ± 7 nM,–,–,–
"CCNC(=O)[C@H]1O[C@@H](n2cnc3c(NCc4cccc(C)c4)ncnc32)[C@H](O)[C@@H]1O [Compound 64, N^6-(3-methylbenzyl)-NECA]",36.5 ± 1.2 nM,17.7 ± 1.8 nM,–,–,–
"CCNC(=O)[C@H]1O[C@@H](n2cnc3c(NCc4ccccc4OC)ncnc32)[C@H](O)[C@@H]1O [Compound 65, N^6-(2-methoxybenzyl)-NECA]",52 ± 5 nM,21 ± 3 nM,–,–,–
"CCNC(=O)[C@H]1O[C@@H](n2cnc3c(NCc4cccc(OC)c4)ncnc32)[C@H](O)[C@@H]1O [Compound 66, N^6-(3-methoxybenzyl)-NECA]",69 ± 8 nM,38 ± 6 nM,–,–,–
"CCNC(=O)[C@H]1O[C@@H](n2cnc3c(NCc4ccc(OC)cc4)ncnc32)[C@H](O)[C@@H]1O [Compound 67, N^6-(4-methoxybenzyl)adenosine-5'-N-ethyluronamide]",209 ± 30 nM,609 ± 34 nM,–,–,–
"Nc1ncnc2c1ncn2[C@H]1C[C@H](O)[C@@H](CO)O1 [Compound 70, 2'-deoxyadenosine, reference compound]",–,–,30.9 ± 8%,–,"inhibition at 100 µM [2, 4]: 38.9 ± 2.9%"
"CO[C@@H]1[C@H](O)[C@@H](CO)O[C@H]1n1cnc2c(N)ncnc21 [Compound 71, 2'-O-methyladenosine, reference compound]",–,–,29.4 ± 7.5%,–,"inhibition at 100 µM [2, 4]: 49 ± 5%"
"Nc1ncnc2c1ncn2[C@@H]1O[C@H](CO)C[C@H]1O [Compound 72, 3'-deoxyadenosine, reference compound]",–,–,5.8 ± 2.8%,–,"inhibition at 100 µM [2, 4]: 26.3 ± 3.4%"
"C[C@H]1O[C@@H](n2cnc3c(N)ncnc32)[C@H](O)[C@@H]1O [Compound 73, 5'-deoxyadenosine, reference compound]",269 ± 135 nM,596 ± 54 nM,–,–,–
"CC(C)CSC[C@H]1O[C@@H](n2cnc3c(N)ncnc32)[C@H](O)[C@@H]1O [Compound 76, 5'-deoxy-5'-isobutylthio adenosine, reference compound]",1140 nM,6890 nM,–,–,–
"Nc1ncnc2c1ncn2[C@@H]1O[C@H](COP(=O)(O)O)[C@@H](O)[C@H]1O [Compound 78, adenosine-5'-monophosphate, reference compound]",–,–,–,57.5 ± 4%,Ki [1]: 47500 ± 6500 nM
"Nc1ncnc2c1ncn2[C@]1(CO)O[C@H](CO)[C@@H](O)[C@H]1O [Compound 80, β-D-psicofuranosyladenine, reference compound]",–,–,–,–,"inhibition at 100 µM [1]: 36.1 ± 4.9%; inhibition at 100 µM [2, 4]: 51.5 ± 7.4%"
"O=c1[nH]c(=O)c2ncn([C@@H]3O[C@H](CO)[C@@H](O)[C@H]3O)c2[nH]1 [Compound 81, xanthosine, reference compound]",–,–,9.1 ± 2.4%,–,"inhibition at 100 µM [2, 4]: 8.5 ± 2.5%"
"O=c1ccn([C@@H]2O[C@H](CO)[C@@H](O)[C@H]2O)c(=O)[nH]1 [Compound 82, uridine, reference compound]",–,–,14.3 ± 6.9%,2.8 ± 5.2%,–
"Cc1cn([C@H]2C[C@H](O)[C@@H](CO)O2)c(=O)[nH]c1=O [Compound 83, thymidine, reference compound]",–,–,23.4 ± 2.5%,1.7 ± 3.4%,–

Compound,"Ki [1, 3]",Ki [2],inhibition at 100 µM ([1]; at 100 μM),"inhibition at 100 µM [2, 5]",other results
"Nc1ccn([C@@H]2O[C@H](CO)[C@@H](O)[C@H]2O)c(=O)n1 [Compound 84, cytidine, reference compound]",–,–,–,16 ± 1.5%,inhibition at 100 µM [1]: 18 ± 1.2%
"OC[C@H]1O[C@@H](n2cnc3c(O)ncnc32)[C@H](O)[C@@H]1O [Compound 85, inosine, reference compound]",16700 nM,50000 nM,–,–,–
"Nc1nc2c(ncn2[C@@H]2O[C@H](CO)[C@@H](O)[C@H]2O)c(=O)[nH]1 [Compound 86, guanosine, reference compound]",27800 nM,8500 nM,–,–,–
"Nc1nc(SCc2ccc([N+](=O)[O-])cc2)c2ncn([C@@H]3O[C@H](CO)[C@@H](O)[C@H]3O)c2n1 [Compound 87, (4-nitrobenzyl)-6-thioguanosine, reference compound]",15000 nM,48500 nM,–,–,–
"Nc1nc2c(ncn2[C@@H]2O[C@H](CO)[C@@H](O)[C@H]2O)c(=S)[nH]1 [Compound 88, 6-thioguanosine, reference compound]",–,–,44.2 ± 2.3%,–,"inhibition at 100 µM [2, 4]: 27.7 ± 5.8%"
"OC[C@H]1O[C@@H](n2cnc3c(=S)[nH]cnc32)[C@H](O)[C@@H]1O [Compound 89, 6-thiopurine riboside, reference compound]",–,–,61.2 ± 3.9%,33.6 ± 3.3%,–
"CNC(=O)[C@H]1O[C@@H](n2cnc3c(=O)[nH]cnc32)[C@H](O)[C@@H]1O [Compound 90, inosine-5'-N-methyluronamide]",–,–,0%,6.2 ± 4.2%,–
"CCNC(=O)[C@H]1O[C@@H](n2cnc3c(=O)[nH]cnc32)[C@H](O)[C@@H]1O [Compound 91, inosine-5'-N-ethyluronamide]",–,–,–,30.6 ± 2.3%,IC50 [1]: > 100000 nM; inhibition at 100 µM [1]: 43.7 ± 10.3%; IC50 [2]: > 100000 nM
"Cn1cnc2[nH]c(=O)[nH]c(=O)c21 [Compound 101, 7-methylX, reference compound]",–,–,52.3 ± 7.9%,37.7 ± 4.9%,–
"Cn1c(=O)[nH]c2c(ncn2C)c1=O [Compound 105, 1,9-dimethylX, reference compound]",–,–,29.4 ± 1.6%,6 ± 6.3%,–
"Cn1cnc2c(=O)[nH]c(=O)n(C)c21 [Compound 107, 3,9-dimethylX, reference compound]",–,–,19.7 ± 7.9%,4.2 ± 5.9%,–
"CCCCCCn1c(=O)c2[nH]cnc2n(CCCCCC)c1=O [Compound 110, 1,3-dihexylX, reference compound]",1260 nM,–,–,–,"inhibition at 10 µM [2, 5]: 14.3 ± 3%"
"CCCn1c(=S)[nH]c(=O)c2[nH]cnc21 [Compound 114, 2-thio-3-propylX, reference compound]",26100 nM,32500 nM,–,–,–
"Cn1c(=O)c2c(ncn2[C@@H]2O[C@H](CO)[C@@H](O)[C@H]2O)n(C)c1=O [Compound 117, theophylline-7-riboside, reference compound]",–,–,–,–,"Ki ([1]; Table 4, [3H]PIA, rat brain membranes, read-out: Ki (A1)): 27000 nM; inhibition at 100 µM [2, 6]: 2%"
"CCCn1c(=O)c2c(ncn2[C@@H]2O[C@H](CO)[C@@H](O)[C@H]2O)n(CCC)c1=O [Compound 118, 1,3-di-n-propylxanthine-7-β-D-ribofuranoside, reference compound]",15900 nM,–,–,32 ± 1.1%,"inhibition at 100 µM [2, 6]: 32%"
"CCCCn1c(=O)c2c(ncn2[C@@H]2O[C@H](CO)[C@@H](O)[C@H]2O)n(CCCC)c1=O [Compound 119, 1,3-di-n-butylxanthine-7-β-D-ribofuranoside]",4190 nM,19500 nM,–,–,–
